Source: US20160367497A1, “METHODS AND COMPOSITIONS FOR TREATING NEUROPATHIES” (Washington University, priority 2007, published 2016)

Experiments:
[1] = system: DRG neuronal explant cultures; assay: in vitro Wallerian degeneration assay, DRG explant neurite transection; assay type: cell-based, mouse; details: for neurite protection after transection: 1 mM applied for 24 hours before neurite transection; for increase in intact neurites at 48 hours after transection: 1 mM exogenous application for 24 hours
Description: To identify the mechanism of delayed axonal degeneration mediated by the Wlds protein, we employed an in-vitro Wallerian degeneration model. Primary DRG explant neurons were infected with lentivirus expressing the appropriate proteins, and axons were injured by either removal of the neuronal cell body (transection) or growth in vincristine (toxic).
Mouse DRG explants from E12.5 embryos were cultured in the presence of 1 nM nerve growth factor. Non-neuronal cells were removed from the cultures by adding 5-fluorouracil to the culture medium. Transection of neurites was performed at 10-20 DIV using an 18-gauge needle to remove the neuronal cell bodies. Incubation with β-nicotinamide adenine dinucleotide (Sigma) or Sirtinol (Calbiochem) was performed using conditions indicated in the text or figures.
Quantitative analysis of axonal degeneration was performed as previously described (Zhai, et al., Neuron 39:217-25, 2003). Briefly, the cultures were examined using phase contrast microscopy at the indicated times. Axons with a fragmented, non-refractile appearance were designated as “degenerated.” At each time point, at least 200 singly distinguishable axons were blindly scored from several randomly taken images of each culture. Each condition was tested in triplicate explants in each experiment. Results were obtained from 2-4 independent experiments for each condition. Statistical analysis was performed by Student's T test. For calculations of neurite-covered area, digitally captured images from quadruplicate samples of two independent experiments were analyzed using analysis 3.1 software (Soft Imaging System, Lakewood, Colo.).
Cell culture, in vitro axotomy, and quantification of axonal degeneration. Mouse DRG explants from E12.5 embryos were cultured in the DMEM containing 10% FCS and 1 nM nerve growth factor. Non-neuronal cells were removed from the cultures by adding 5-fluorouracil to the culture media. Transection of neurites was performed at 14-21 DIV using an 18-gauge needle to remove the neuronal cell bodies. Lentiviral expression vectors were generated. Lentiviral infection was performed 3-7 days prior to axonal transection for 24 hr. Quantitative analysis of neurite degeneration was performed.

[2] = system: Tfam, PGC-1α and MFN2 mRNA; assay: mitochondrial biogenesis markers, quantitative RT-PCR in Neuro2a cells; assay type: cell-based; details: with resveratrol 10 μM; Compound C 10 μM or dominant negative AMPK expression
Description: Three days later cells were shifted to serum-starvation medium containing DMSO (control) or resveratrol (10 μM). In addition, uninfected Neuro2a cells in serum-starvation medium were treated with resveratrol alone, the AMPK inhibitor Compound C (CC, Biomol International L.P. (Plymouth Meeting, Pa.)) (10 μM) alone or with resveratrol and CC together. […] Values were normalized to the 18S transcript. Data shown is representative of two independent experiments.
Protein and mRNA analysis. […] Quantitative RT-PCR analysis was performed using Sybr-Green methodology on a model 7700 instrument (Applied Biosystems) as previously described (Araki et al., 2004, Science 305:1010-1013).
We treated Neuro2a cells for 3d with either DMSO (control) or resveratrol (10 μM) in the presence or absence of the AMPK inhibitor Compound C (10 μM). We assessed mitochondrial biogenesis by monitoring mRNA levels of mitofusin 2 (MFN2), a mitochondrial protein and marker of mitochondrial mass and two key regulators of mitochondrial biogenesis, peroxisome proliferator activated receptor γ coactivator 1α (PGC1α) and mitochondrial transcription factor A (Tfam) (Kelly, et al., 2004, Genes Dev 18:357-368).

DRG neurons = assay: axonal injury of DRG neurons after hypoxia and reoxygenation; assay type: cell-based; details: preincubation 45 min or lentiviral expression; 0.1% O2 8 or 16 hrs, 20 hrs reoxygenation
Description: FIG. 18 illustrates that activation of AMPK protects axons while inhibition of AMPK function enhances axonal injury during oxygen deprivation.
To examine whether AMPK activation prior to hypoxic stress protects axons from injury, either constitutively active AMPK (CaAMPK) was expressed in DRG neurons, or neurons were preincubated with the AMPK activator AICAR for 45 min prior to hypoxia. […] Thus, treatments that increase AMPK activity (e.g. resveratrol, AICAR) can block the axonal damage and are neuroprotective.

neuro2A cells [3] = assay: neurite outgrowth in Neuro2a cells; assay type: cell-based
Description: FIG. 11A-D illustrates the resveratrol and AICAR stimulation of neurite outgrowth in Neuro2a cells. Neuro2a cells were switched to serum-starvation medium (medium containing 0.2% FCS) and treated with DMSO (vehicle control), resveratrol (10 μM) or AICAR (1 mM). (A) Serum deprivation of Neuro2a cells results in growth of short neurites that increase in length over 72 h. (B) Resveratrol induced rapid neurite outgrowth resulting in elaborate neurite network formation by 48 h. (C) AICAR stimulated extensive neurite outgrowth similar to that observed with resveratrol. (D).
FIG. 12A-M illustrates the dependency of resveratrol-induced neurite outgrowth and mitochondrial biogenesis on AMPK. Neuro2a cells were infected with lentivirus expressing GFP only (FUGW, control), dominant negative AMPK (dnAMPK) or constitutively active AMPK (caAMPK). Three days later cells were shifted to serum-starvation medium containing DMSO (control) or resveratrol (10 μM). In addition, uninfected Neuro2a cells in serum-starvation medium were treated with resveratrol alone, the AMPK inhibitor Compound C (CC, Biomol International L.P. (Plymouth Meeting, Pa.)) (10 μM) alone or with resveratrol and CC together. Images of the cultures captured in bright field and green fluorescence were overlaid to visualize neurite outgrowth. […] Neurite length in cells treated with caAMPK+resveratrol is also shown (G). […] Values were normalized to the 18S transcript. Data shown is representative of two independent experiments.
Cell culture and Reagents. Neuro2 cells obtained from ATCC were grown in MEM with 1.5 g/L sodium bicarbonate, 0.1 mM nonessential amino acids, 0.1 mM sodium pyruvate, 2 mM L-glutamine with 10% FCS. For differentiation, cells were switched to serum-starvation medium (containing 0.2% FCS). For neurite outgrowth measurements, experiments were done in quadruplicate and 100 neurites per well were randomly measured using the Metamorph software. Dorsal root ganglia sensory and cortical neurons were established from E13.5 mouse embryos, maintained in neurobasal medium supplemented with B27 (and NGF for DRG neurons) and infected with lentiviruses as described (Araki et al., 2004, Science 305:1010-1013; Hawley et al., 2005, Cell Metab 2:21-23). Resveratrol was a gift from Sirtris Pharmaceuticals (Cambridge Mass.) and AICAR was obtained from Toronto Research (North York, Canada). Splitomycin and Compound C were purchased from Biomol (Plymouth Meeting, Pa.) and Calbiochem (San Diego, Calif.). Sirtinol and nicotinamide were purchased from Sigma (Saint Louis, Mo.)
Neuro2a cells are a widely used as in vitro model of neuronal differentiation. These cells cease to proliferate and begin to differentiate, as evidenced by neurite outgrowth, in response to serum starvation, retinoic acid, or growth factors like neurotrophins and GDNF family ligands. […] Neuro2a cells grown under serum starvation conditions (0.2% fetal calf serum) were treated with AICAR (1 mM) or resveratrol (10 μM).
Since resveratrol activated AMPK and altered the differentiation of Neuro2a cells, we next asked whether AMPK activity was required for resveratrol-induced neurite outgrowth. To address this issue, we infected Neuro2a cells with lentivirus expressing either GFP alone (FUGW-control) or dominant negative AMPK (dnAMPK). After 3 days growth to allow robust lentiviral transgene expression, the medium was replaced with serum starvation medium. […] Resveratrol-induced neurite outgrowth was reduced in the presence of the AMPK pharmacological inhibitor Compound C (CC 10 μM) further supporting the importance of AMPK activity for resveratrol-induced neurite outgrowth.

[4] = system: optic nerve (retinal ganglion cell axons); assay: optic nerve transection after intravitreal injection, neurofilament Western blot; assay type: in vivo, rat; details: 24 hours before transection, 4 days after transection
Description: FIG. 9 illustrates optic nerve transection after intravitreal injection of NAD biosynthetic substrates NAD, NMN, NmR, or Nam was injected into intravitreal compartment of left rat eye and allowed to incorporate retinal ganglion cells for 24 hours after which, left optic nerve was transected by eye enucleation and right and left optic nerves were collected at 4 days after transection and analyzed by Western blotting in which optic nerves transected from […] without any treatment prior to axotomy were used for negative control; showing in the figure, the quantitative analysis data of percentage of remaining neurofilament immunoreactivity from transected optic nerve relative to non-transected±S.D.
Administration of NAD biosynthetic substrates and optic Nerve transection. Nam, NMN, NmR, or NAD was dissolved in PBS at the concentration of 100 mM or 1 M. Each of 5 μl solution was injected into left intravitreal component under the anesthesia at a rate of […]. The left optic nerve was transected at 24 hours after intravitreal injection and optic nerve was recovered at indicated time. Optic nerve tissue was homogenized in 100 μl of a buffer containing 100 mM tris-HCl (pH 6.8), 1% SDS, and 1 mM DTT. Fifty μg of protein for each sample was analyzed by the Western blotting using anti-neurofilament antibody 2H3 (Developmental Studies Hybridoma Center) and peroxidase-conjugated secondary antibody (Jackson ImmunoResearch). The degeneration rate was calculated from the ratio of the neurofilament immunoreactivity of transected vs. contralateral nerves.
Transection of optic nerve is an in vivo model which can be used to investigate mechanisms leading to Wallerian degeneration and following retinal ganglion cell (RGC) death observed in human diseases such as glaucoma. In the C57BL/Wlds mouse strain, optic nerve degeneration during Wallerian degeneration after axotomy is dramatically slowed. In addition, intravitreal injection is used for screening of compounds that protect RGC axon from degeneration in vivo and thus we can asses the axon protective effect of each NAD biosynthetic substrates in vive by intraocular injection of compounds including NAD, NMN, NmR, and Nam. From in vitro Wallerian degeneration assay, 1 mM of NAD, NMN, and NmR in the culture media is enough to protect axon from degeneration. We initially injected 5 μl of 100 mM or 1 M NAD solution into left intravitreal compartment. After 24 hours incubation, left optic nerve was transected and control (right) and axotomized (left) optic nerve were collected at 3, 4, and 5 days after transection. Neurofilament immunoreactivity from the axotomized optic nerve was measured and normalized against the value obtained from the right side of the optic nerve.

neuro2A cells [5] = assay: cellular ATP levels, luciferase-based assay in neuro2A cells; assay type: cell-based; details: 2 hr
Description: To explore the role of polyphenols, in particular, of resveratrol, we tested whether resveratrol altered the activity of AMPK in neuronal cells. Neuro2a neuroblastoma cells were treated with resveratrol (10 μM) and AMPK activation was examined using phospho-AMPK specific antibodies. […] To confirm that AMPK activation by resveratrol results in typical AMPK-mediated downstream responses, we monitored phosphorylation of ACC (acetyl Co-A carboxylase), a primary target of activated AMPK. […] To examine a potential mechanism of resveratrol-mediated AMPK activation, we measured cellular ATP levels as a decreased ATP:AMP ratio increases the phosphorylation of AMPK. ATP levels were monitored using a luciferase-based assay in neuro2A cells treated with resveratrol or Oligomycin, an inhibitor of mitochondrial oxidative phosphorylation and therefore ATP production. While the ATP concentration dropped from 5.874 μM in DMSO-treated cells (control) to 0.976 μM in Oligomycin treated cells within 2 hr, the ATP concentration in resveratrol-treated Neuro2a cells was not altered from control either at 2 hr (6.33 μM) or 24 hr (6.42 μM).

Structure (SMILES)	neurofilament immunoreactivity of axotomized optic nerve, of non-axotomized optic nerve ([4]; 5 μl of 100 mM intravitreal)	neurite protection after transection [1]	increase in intact neurites at 48 hours after transection [1]	other results
NC(=O)c1cccc(N)c1 [3AB, 3-aminobenzamide, reference compound]				effect on NAD-dependent axonal protection (NDAP) ([1]; neurons cultured in 1 mM NAD, Sirtinol 100 μM, 3AB 20 mM or siRNA lentivirus, 12 to 72 hr after transection): had no effect on NDAP
c1cc(-c2cnn3cc(-c4ccc(OCCN5CCCCC5)cc4)cnc23)ccn1 [Compound C]				effect on resveratrol-induced upregulation of mitochondrial markers [2]: severely diminished; axonal injury (axonal beading) after hypoxia (DRG neurons): severe axonal injury; effect on resveratrol-stimulated neurite outgrowth (neuro2A cells [3]; resveratrol 10 μM, Compound C 10 μM, SIRT1 inhibitors, STO 609 2.5 μM or dnAMPK expression): reduced; neurite growth, inhibitor by itself (neuro2A cells [3]; without resveratrol): did not cause any significant inhibition of neurite growth
NC(=O)c1ccc[n+]([C@@H]2O[C@H](COP(=O)([O-])OP(=O)(O)OC[C@H]3O[C@@H](n4cnc5c(N)ncnc54)[C@H](O)[C@@H]3O)[C@@H](O)[C@H]2O)c1 [NAD, nicotinamide adenine dinucleotide]	78±22%			neurofilament immunoreactivity of axotomized optic nerve, of non-axotomized optic nerve ([4]; 5 μl of 1 M intravitreal): 77±27%
NC(=O)c1ccc[n+]([C@@H]2O[C@H](COP(=O)([O-])O)[C@@H](O)[C@H]2O)c1 [NMN, nicotinamide mononucleotide]	60±25%	successfully saved neurites from degeneration	comparable increase in intact neurites	
O=C(O)c1cccnc1 [Na, nicotinic acid]		failed to save neurites		
Nc1ncnc2c1ncn2[C@@H]1O[C@H](COP(=O)(O)OP(=O)(O)OC[C@H]2O[C@@H]([n+]3cccc(C(=O)O)c3)[C@H](O)[C@@H]2O)[C@@H](O)[C@H]1O [NaAD, nicotininc acid adenine dinucleotide]		slight protection	less increase in intact neurites at 48 hours compared with NAD	
O=C(O)c1ccc[n+]([C@@H]2O[C@H](COP(=O)(O)O)[C@@H](O)[C@H]2O)c1 [NaMN, nicotinate mononucleotide]		saved neurites as well as NAD	comparable increase in intact neurites	
NC(=O)c1ccc[n+]([C@@H]2O[C@H](CO)[C@@H](O)[C@H]2O)c1 [NmR, nicotinamide riboside]	72±19%	saved neurites as well as NAD	comparable increase in intact neurites	
CC[C@H]1/C=C/C=C/C[C@@H](C)[C@H](O)[C@@](C)(O)C(=O)[C@@H](C)[C@H](O)[C@@H](C)C(=O)[C@@H](C)[C@H](O)[C@@H](C)/C=C/C(=O)O[C@@H]2[C@H](C)[C@H](CC1)O[C@]1(CC[C@H](C)[C@H](C[C@@H](C)O)O1)[C@H]2C [Oligomycin, reference compound]				ATP concentration (neuro2A cells [5]): 0.976 µM
